Reference: ChEMBL document CHEMBL4837181 (Eur J Med Chem, 2020)

Key:
[1] = Change in Cmax in rat at 37 umol/kg, po measured upto 72 hrs by LC-MS/MS analysis; assay type: ADME, organism-based; settings: in vivo, at 37 µmol/kg
[2] = Change in Cmax in rat at 185 umol/kg, po measured upto 72 hrs by LC-MS/MS analysis; assay type: ADME, organism-based; settings: in vivo, at 185 µmol/kg
[3] = Change in Cmax in rat at 500 umol/kg, po measured upto 72 hrs by LC-MS/MS analysis; assay type: ADME, organism-based; settings: in vivo, at 500 µmol/kg
[4] = Change in AUC (infinity) in rat at 37 umol/kg, po measured upto 72 hrs by LC-MS/MS analysis; assay type: ADME, organism-based; settings: in vivo, at 37 µmol/kg
[5] = Change in AUC(infinity) in rat at 500 umol/kg, po measured upto 72 hrs by LC-MS/MS analysis; assay type: ADME, organism-based; settings: in vivo, at 500 µmol/kg
[6] = Change in Cmax in cynomolgus monkey at 92 umol/kg, po measured after 0.083 to 48 hrs by LC-MS/MS analysis; assay type: ADME, organism-based, Macaca fascicularis; settings: in vivo, at 92 µmol/kg, time 0.083-48 hrs
[7] = Change in Cmax in cynomolgus monkey at 275 umol/kg, po measured after 0.083 to 48 hrs by LC-MS/MS analysis; assay type: ADME, organism-based, Macaca fascicularis; settings: in vivo, at 275 µmol/kg, time 0.083-48 hrs
[8] = Change in Cmax in cynomolgus monkey at 825 umol/kg, po measured after 0.083 to 48 hrs by LC-MS/MS analysis; assay type: ADME, organism-based, Macaca fascicularis; settings: in vivo, at 825 µmol/kg, time 0.083-48 hrs
[9] = Change in AUC(infinity) in cynomolgus monkey at 92 umol/kg, po measured after 0.083 to 48 hrs by LC-MS/MS analysis; assay type: ADME, organism-based, Macaca fascicularis; settings: in vivo, at 92 µmol/kg, time 0.083-48 hrs
[10] = Change in AUC(infinity) in cynomolgus monkey at 275 umol/kg, po measured after 0.083 to 48 hrs by LC-MS/MS analysis; assay type: ADME, organism-based, Macaca fascicularis; settings: in vivo, at 275 µmol/kg, time 0.083-48 hrs
[11] = Change in AUC(infinity) in cynomolgus monkey at 825 umol/kg, po measured after 0.083 to 48 hrs by LC-MS/MS analysis; assay type: ADME, organism-based, Macaca fascicularis; settings: in vivo, at 825 µmol/kg, time 0.083-48 hrs
[12] = Stability in mouse plasma assessed as parent compound remaining measured after 2 hrs by LC-MS/MS analysis; assay type: ADME, cell-free; settings: read-out: Stabilty
[13] = Stability in rat plasma assessed as parent compound remaining measured after 2 hrs by LC-MS/MS analysis; assay type: ADME, cell-free; settings: read-out: Stabilty
[14] = Dose normalized Cmax in rat at 50 mg/kg, po measured upto 72 hrs by LC-MS/MS analysis; assay type: ADME, organism-based; settings: in vivo
[15] = Dose normalized AUC (0 to infinity) in rat at 50 mg/kg, po measured upto 72 hrs by LC-MS/MS analysis; assay type: ADME, organism-based; settings: in vivo
[16] = Change in normalised Cmax in rat at 50 mg/kg, po measured upto 72 hrs by LC-MS/MS analysis; assay type: ADME, organism-based; settings: in vivo
[17] = Change in normalised AUC (infinity) in rat at 50 mg/kg, po measured upto 72 hrs by LC-MS/MS analysis; assay type: ADME, organism-based; settings: in vivo
[18] = Chemical stability of compound in saline assessed as compound remaining at 5 uM measured after 24 hrs by LC-MS/MS analysis; assay type: physicochemical; settings: read-out: Stabilty
[19] = Chemical stability of compound in 0.1 N aqueous HCl buffer assessed as compound remaining at pH 1 at 5 uM measured after 1.5 hrs by LC-MS/MS analysis; assay type: physicochemical; settings: pH 1, 1.5 h
[20] = Chemical stability of compound in 0.1 N aqueous HCl buffer assessed as compound remaining at pH 1 at 5 uM measured after 24 hrs by LC-MS/MS analysis; assay type: physicochemical; settings: pH 1, 24 h
[21] = Chemical stability of compound in PBS buffer assessed as compound remaining at pH 7.4 at 5 uM measured after 6 hrs by LC-MS/MS analysis; assay type: physicochemical; settings: read-out: Stabilty
[22] = Chemical stability of compound in PBS buffer assessed as compound remaining at pH 7.4 at 5 uM measured after 24 hrs by LC-MS/MS analysis; assay type: physicochemical; settings: read-out: Stabilty
[23] = Chemical stability of compound in simulated gastric fluid assessed as compound remaining at 5 uM measured after 1.5 hrs by LC-MS/MS analysis; assay type: ADME, physicochemical; settings: read-out: Stabilty
[24] = Chemical stability of compound in simulated gastric fluid assessed as compound remaining at 5 uM measured after 24 hrs by LC-MS/MS analysis; assay type: ADME, physicochemical; settings: read-out: Stabilty
[25] = Chemical stability of compound in simulated intestinal fluid assessed as compound remaining at 5 uM measured after 3 hrs by LC-MS/MS analysis; assay type: ADME, physicochemical; settings: read-out: Stabilty
[26] = Chemical stability of compound in simulated intestinal fluid assessed as compound remaining at 5 uM measured after 24 hrs by LC-MS/MS analysis; assay type: ADME, physicochemical; settings: read-out: Stabilty
[27] = Stability in human plasma assessed as parent compound remaining measured after 6 hrs by LC-MS/MS analysis; assay type: ADME, cell-free; settings: read-out: Stabilty
[28] = Stability in human plasma assessed as parent compound remaining measured after 24 hrs by LC-MS/MS analysis; assay type: ADME, cell-free; settings: read-out: Stabilty
[29] = Dose normalized Cmax in rat at 10 mg/kg, po measured upto 72 hrs by LC-MS/MS analysis; assay type: ADME, organism-based; settings: in vivo
[30] = Dose normalized AUC (0 to infinity) in rat at 10 mg/kg, po measured upto 72 hrs by LC-MS/MS analysis; assay type: ADME, organism-based; settings: in vivo
[31] = Change in normalised Cmax in rat at 10 mg/kg, po measured upto 72 hrs by LC-MS/MS analysis; assay type: ADME, organism-based; settings: in vivo
[32] = Change in normalised AUCinfinity in rat at 10 mg/kg, po measured upto 72 hrs by LC-MS/MS analysis; assay type: ADME, organism-based; settings: in vivo

Row | Activity [1] [%] | Activity [2] [%] | Activity [4] [%] | remaining at 2 h [12] [%] | remaining at 2 h [13] [%] | Cmax/dose [14] [µM] | AUC/dose [15] [µM·h] | Activity [16] [%] | Activity [17] [%] | remaining at 24 h, 5 µM [18] [%] | Stabilty [19] [%] | Stabilty [20] [%] | remaining at 6 h, 5 µM [21] [%] | remaining at 24 h, 5 µM [22] [%] | remaining at 1.5 h, 5 µM [23] [%] | remaining at 24 h, 5 µM [24] [%] | remaining at 3 h, 5 µM [25] [%] | remaining at 24 h, 5 µM [26] [%] | remaining at 6 h [27] [%] | remaining at 24 h [28] [%] | Structure (SMILES) | further results
1 | 21 | 152 | 13 | – | – | – | – | – | – | – | – | – | – | – | – | – | – | – | – | – | CCOC(=O)[C@@H](Cc1cn(C)c2ccccc12)NC(=O)[C@@H](N)CCSC.Cl | Activity [3]: 59%; Activity [5]: 49%; Activity [6]: 305%; Activity [7]: 402%; Activity [8]: 411%; Activity [9]: 136%; Activity [10]: 393%; Activity [11]: 369%
2 | – | – | – | 97 | 100 | 6 | 229 | -78 | -83 | – | – | – | – | – | – | – | – | – | – | – | CCOC(=O)N[C@H](Cc1cn(C)c2ccccc12)C(=O)O | –
3 | 37 | 153 | 46 | – | – | – | – | – | – | – | – | – | – | – | – | – | – | – | – | – | Cn1cc(C[C@@H](N)C(=O)OCC(O)CO)c2ccccc21.O=P(O)(O)O (stereo partly drawn) | –
4 | – | – | – | 0 | 0 | 66 | 2988 | 143 | 126 | 100 | 59 | 100 | 94 | 52 | 83 | 85 | 64 | 0 | 93 | 35 | CCOC(=O)[C@H](N)Cc1cn(C)c2ccccc12.Cl | Cmax/dose [29]: 22 µM; AUC/dose [30]: 454 µM·h; Activity [31]: 27%; Activity [32]: -11%
5 | -69 | – | -54 | 0 | 19 | – | – | – | – | 23 | 36 | 23 | 92 | 12 | 75 | 73 | 45 | 3 | 44 | 2 | Cl.Cn1cc(C[C@@H](N)C(=O)OCC2CCNCC2)c2ccccc21 | Cmax/dose [29]: 21.5 µM; AUC/dose [30]: 889 µM·h; Activity [31]: 24%; Activity [32]: 75%

Row | Structure (SMILES) | Activity [1] [%] | Activity [2] [%] | Activity [4] [%] | remaining at 2 h [12] [%] | remaining at 2 h [13] [%] | Cmax/dose [14] [µM] | AUC/dose [15] [µM·h] | Activity [16] [%] | Activity [17] [%] | remaining at 24 h, 5 µM [18] [%] | Stabilty [19] [%] | Stabilty [20] [%] | remaining at 6 h, 5 µM [21] [%] | remaining at 24 h, 5 µM [22] [%] | remaining at 1.5 h, 5 µM [23] [%] | remaining at 24 h, 5 µM [24] [%] | remaining at 3 h, 5 µM [25] [%] | remaining at 24 h, 5 µM [26] [%] | remaining at 6 h [27] [%] | remaining at 24 h [28] [%] | further results
6 | CCOC(=O)[C@@H](Cc1cn(C)c2ccccc12)NC(=O)[C@@H](N)CC(C)C.O=P(O)(O)O | 84 | 69 | 61 | – | – | – | – | – | – | – | – | – | – | – | – | – | – | – | – | – | –
